Data on one molecule can be found in US12004511B2, “Method of controlling weeds in warm season turfgrass” (SYNGENTA PARTICIPATIONS AG, priority 2017, dated 2024).

In experiment [1] the test system is tropical signalgrass (Urochloa subquadripara). Nature of the experiment: Tropical signalgrass control in Bermudagrass plots. It is filed as in vivo. The settings on record: 28 days after application. An excerpt: Applications of pinoxaden, and pinoxaden plus cloquintocet were applied to various Bermudagrass plots with tropical […] present between August 11 and August 13. The plots were again evaluated 28 days following the application. The following percent weed controls were observed.

Experiment [2] concerns dallisgrass (Paspalum dilatatum). Nature of the experiment: Dallisgrass control in bermudagrass. It counts as in vivo. The following applies: two applications, 28 days after the first application. An excerpt:
Applications initiated on Oct. 1, 2014.
initiated in AL for dallisgrass control in bermudagrass on Oct. 28, 2013. Two applications were applied. Percent dallisgrass control was taken 28 days after the first application.

The structures appear in SMILES notation.

As to `CCc1cc(C)cc(CC)c1-c1c(OC(=O)C(C)(C)C)n2n(c1=O)CCOCC2` [Pinoxaden, 8-(2,6-Diethyl-4-methylphenyl)-7-oxo-1,2,4,5-tetrahydro-7H-pyrazolo[1,2-d][1,4,5]oxadiazepin-9-yl-2,2-dimethylpropanoat], the “% Control (28 Days AIA)” value in experiment [1] (70 g active/ha) came out at 79.5%; in experiment [1] (140 g active/ha), 89.7%; in experiment [2] (45 g active/ha) it was 82%; in experiment [2] (90 g active/ha), 85%.
